Results: US20170136021A1, “METHODS AND COMPOSITIONS FOR TREATING ENVELOPED VIRUSES” (priority 2014, published 2017)

Tests used:
Ebola virus [1] = test: microbe, parasite or virus in culture; assay type: cell-based; details: for EC50: Zaire ebolavirus, Vero, read-out: EC50 of Ebola infection
rVSV-EBOV-GP = test: organism not typed; assay type: cell-based, vesicular stomatitis virus expressing EBOV glycoprotein
Ebola virus [2] = assay type: cell-based
Ebola virus [3] = tested on: Ebola virus; parameters: species or system mice; details: mouse, in vivo

CCN(CC)CCNC(=O)c1c(C)[nH]c(/C=C2\C(=O)Nc3ccc(F)cc32)c1C [sunitinib]
EC50 (Ebola virus [1]): 2.25 µM
IC50 (rVSV-EBOV-GP; Vero, 20 h, read-out: IC50 of viral entry inhibition): 6.15 µM

C#Cc1cccc(Nc2ncnc3cc(OCCOC)c(OCCOC)cc23)c1 [erlotinib]
overall infection with Ebola virus (Ebola virus [1]): dose-dependent reduction
EC50 (Ebola virus [1]): 4.22 µM
Ebola replication in cells (Ebola virus [2]): reduces
percentage of Ebola positive cells versus concentration (inhibition of Ebola) (Ebola virus [2]): inhibition of Ebola by erlotinib in a dose-dependent manner
Ebola entry (rVSV-EBOV-GP): reduced Ebola entry in a dose-dependent manner
mortality of Ebola infected mice (Ebola virus [3]): reduces
percentage survival (Ebola virus [3]; 30 mg/kg): 100%
